# Tested on: newborn PL/J mice
# Test: Primary myelination in newborn pups, GIcNAc given to pregnant/lactating mothers in drinking water
# Format: in vivo, mouse
# Procedure: GIcNAc treatment of mouse pups—GIcNAc (1 mg/mL) in drinking water was provided to pregnant PLJ mothers or mothers who recently delivered pups and were nursing their young. After the treatment period, pups were anesthetized with isoflurane and cardiac perfused with PBS. Pup and fetal brains were removed and homogenized by trituration using glass pipettes in PBS with 5% Fetal Bovine Serum (FBS).
# Cells were then stained with antibodies and analyzed by flow cytometry using antibodies described herein. For immunofluorescence analysis of pup brains, pups were quickly decapitated, brains harvested and fixed in 4% paraformaldehyde overnight.
# For neural stem cell (NSC) immunofluorescence, whole neurospheres were seeded onto laminin-coated coverslips (Neuvitro) in proliferation medium. After 24 hours, proliferation media was removed and replaced with differentiation medium (same components as proliferation medium but excluding EGF, bFGF, and heparin) to induce differentiation. For analysis of mouse brains, brains were incubated in 30% sucrose for at least 72 hours, embedded in OCT (Tissue-tek), frozen for at least 48 hours at −80° C., and then cut at 40 microns on a cryostat. Multiple sections from −1 bregma to −2.5 bregma were then stained with antibodies for MBP (1:100; MAB386, Millipore), Olig2 (1:200; AB9610, Millipore), CC1 (1:100; OP90, Millipore), degraded MBP (1:200, AB5864, Millipore) and Amyloid Precursor Protein (APP, 1:200; clone 22C11). After overnight incubation with primary antibody, tissues were washed and incubated with secondary antibodies: goat anti-rat Alexa-fluor 488 (1:200, Thermofisher), goat anti-rabbit TxRd (1:200, Thermofisher). APP is a marker for neuro-axonal damage while co-staining for CC1 and Olig2 are markers of mature oligodendrocytes. In order to examine the amount of myelin, slices were incubated in Fluoromyelin (1:300; F34651, Thermofisher) for 45 minutes. Images were acquired on a Keyence fluorescence microscope. Mean fluorescence intensity of the medial corpus callosum was measured using ImageJ.
# To assess whether oral GIcNAc promotes oligodendrogenesis in vivo in the absence of inflammation, primary myelination was examined in mice during the early perinatal period. GIcNAc or vehicle was provided to pregnant/lactating female mice from E12.5, postnatal day 3 (P3) or P5 through to P8. Indeed, oral GIcNAc increased N-glycan branching in PDGFRα^+ cells as well as the number of pre-oligodendrocytes (PDGFRα^+O4^+), immature oligodendrocytes (PDGFRα-O4^+) and mature oligodendrocytes (MBP*), with little effect on the number of OPC's ([…]) (FIG. 2B and FIG. 6A).
# [1] = mothers treated from E12.5, P3 or P5 to P8, pup brains
smiles,measurement,setting,value
"CC(=O)N[C@H]1C(O)O[C@H](CO)[C@@H](O)[C@@H]1O (stereo partly shown) [GIcNAc, N-acetylglucosamine]",primary myelination: staining for myelin (fluoromyelin),P3-8,increased
same,primary myelination: staining for myelin basic protein (MBP),P3-8,increased
same,N-glycan branching in PDGFRα+ cells,[1],increased
same,number of OPC's (PDGFRα−O4+),[1],little effect
same,number of immature oligodendrocytes (PDGFRα-O4+),[1],increased
same,number of mature oligodendrocytes (MBP),[1],increased
same,number of pre-oligodendrocytes (PDGFRα+O4+),[1],increased

# — patent US20240415858A1, “PROMOTING MYELINATION BY N-ACETYLGLUCOSAMINE AND MODULATION OF N-GLYCAN BRANCHING” (THE REGENTS OF THE UNIVERSITY OF CALIFORNIA, priority 2021, published 2024)
